Laboratory results: US20090088412A1, “COMPOSITION FOR TREATING CANCER CELLS AND PREPARATION METHOD THEREOF” (KAOHSIUNG MEDICAL UNIVERSITY, priority 2007, published 2009)
≈ marks a conversion by molar mass, not a printed value.

Columns and labels:
Type in all cases: cell-based, human
Hep 3B = assay: MTT cytotoxicity test, Hep 3B; conditions: liver cancer cell line, 72 hours
Method: (§1) The bioactivities of the 25 new withanolide compounds of the present invention are further studied. The bioactivities are measured by examining cytotoxicity tests with 5 human cancer cell lines, including MCF-7 and MDA-MB-231 (which are the breast cancer cell lines), Hep G2 and Hep 3B (which are the liver cancer cell line), and A549 (which is lung cancer cell line). In addition, a normal human lung cell line (MRC-5) is served as the control group. All human cancer cell lines come from the American Type Culture Collection. The respective cell lines are cultured in RPMI-1640 medium with 10% (v/v) fetal calf serum, 100 U/ml penicillin and 100 µg/ml streptomycin, and incubated at 37° C. in 5% CO2 atmosphere.
(§2) In the present invention, the cytotoxicity tests are performed with MTT (3-(4,5-dimethyl-thiazol-2-yl)-2,5-diphenyl tetrazolium bromide) method. The five cancer cell lines and the normal cell line (MRC-5) are firstly incubated in a 96-well culture dish with concentrations of 5,000˜10,000 cells/well. In Day 2, the respective incubated cells are added with the withanolide compounds of the present invention and Doxorubicin and are incubated for additional 72 hours. Afterwards, the incubated cells are examined with the MTT method including steps of dissolving the incubated cells in DMSO, and determining the absorbance of each cell line to each compound by a microplate reader in 550 nm to evaluate the cytotoxicity of each compound to each cell line. […] The IC50 represents the concentration of the compound that is required for 50% inhibition of the cell growth, and Doxorubicin serves as the positive control group.

A-549 = assay: MTT cytotoxicity test, A-549; conditions: lung cancer cell line, 72 hours
Method: as §1, §2

MDA-MB-231 = assay: MTT cytotoxicity test, MDA-MB-231; conditions: breast cancer cell line, 72 hours
Method: as §1, §2

Hep G2 = assay: MTT cytotoxicity test, Hep G2; conditions: liver cancer cell line, 72 hours
Method: as §1, §2

MCF-7 = assay: MTT cytotoxicity test, MCF-7; conditions: breast cancer cell line, 72 hours
Method: as §1, §2

| Compound | IC50 Hep 3B (Hep 3B) | IC50 A-549 (A-549) | IC50 MDA-MB-231 (MDA-MB-231) | IC50 Hep G2 (Hep G2) | IC50 MCF-7 (MCF-7) |
| --- | --- | --- | --- | --- | --- |
| CC1=C(C)C(=O)O[C@@H]([C@@H](C)[C@@]2(C)C3=C(C[C@H]2O)[C@@H]2C[C@H](O)[C@]4(O)[C@@H](O)C=CC(=O)[C@]4(C)[C@H]2CC3)C1 [Compound 6, Tubocapsenolide F] | 15.07 µg/mL (≈ 31 µM) | 6.04 µg/mL (≈ 12.4 µM) | 8.41 µg/mL (≈ 17.3 µM) | >20 µg/mL | 14.71 µg/mL (≈ 30.2 µM) |
| CCCCOC1CC(=O)[C@]2(C)[C@H]3CCC4=C(C[C@@H](O)[C@@]4(C)[C@H](C)[C@H]4CC(C)=C(C)C(=O)O4)[C@@H]3C[C@H]3O[C@]32[C@H]1O (some centres unmarked) [Compound 5, Tubocapsenolide E] | 13.20 µg/mL (≈ 24.3 µM) | 15.94 µg/mL (≈ 29.4 µM) | 17.50 µg/mL (≈ 32.2 µM) | 12.31 µg/mL (≈ 22.7 µM) | >20 µg/mL |
| CC1=C(C)C(=O)O[C@@H]([C@@H](C)[C@@]2(C)C3=C(C[C@H]2O)[C@@H]2C[C@H]4O[C@]45[C@@H](O)C(O)CC(=O)[C@]5(C)[C@H]2CC3)C1 (some centres unmarked) [Compound 3, Tubocapsenolide C] | >20 µg/mL | 7.06 µg/mL (≈ 14.5 µM) | >20 µg/mL | 15.93 µg/mL (≈ 32.7 µM) | >20 µg/mL |
| CC1=C(C)C(=O)O[C@@H]([C@@H](C)[C@@]2(O)CC[C@H]3[C@@H]4C[C@H](O)[C@]5(O)[C@@H](O)C=CC(=O)[C@]5(C)[C@H]4CC[C@@]32C)C1 [Compound 13, Tubocapsanolide D] | 7.19 µg/mL (≈ 14.7 µM) | 8.01 µg/mL (≈ 16.4 µM) | 13.49 µg/mL (≈ 27.6 µM) | >20 µg/mL | >20 µg/mL |
| C[C@@]12CC([C@@]3(O)[C@H](O)C[C@H]4[C@@H]5C[C@H](O)[C@]6(O)CC=CC(=O)[C@]6(C)[C@H]5CC[C@@]43C)[C@@H](C1)OC(=O)[C@]2(C)O (some centres unmarked) [Compound 23, Anomanolide E] | >20 µg/mL | >20 µg/mL | >20 µg/mL | >20 µg/mL | >20 µg/mL |
| C[C@@]12CC([C@@]3(O)[C@H](O)C[C@H]4[C@@H]5CC[C@]6(O)[C@@H](O)C=CC(=O)[C@]6(C)[C@H]5CC[C@@]43C)[C@@H](C1)OC(=O)[C@]2(C)O (some centres unmarked) [Compound 24, Anomanolide F] | >20 µg/mL | >20 µg/mL | >20 µg/mL | >20 µg/mL | >20 µg/mL |
| C[C@]1(O)C[C@H]2OC(=O)[C@]1(C)C[C@H]2[C@@]1(O)[C@H](O)C[C@H]2[C@@H]3C[C@H](Cl)[C@]4(O)[C@@H](O)C=CC(=O)[C@]4(C)[C@H]3CC[C@@]21C [Compound 25, Tubonolide A] | 6.54 µg/mL (≈ 12.1 µM) | 5.91 µg/mL (≈ 11 µM) | >20 µg/mL | 5.09 µg/mL (≈ 9.44 µM) | 12.03 µg/mL (≈ 22.3 µM) |
| COC1CC(=O)[C@]2(C)[C@H]3CC[C@@]4(C)[C@@H](CC[C@]4(O)[C@H](C)[C@H]4CC(C)=C(C)C(=O)O4)[C@@H]3C[C@H]3O[C@]32[C@H]1O (some centres unmarked) [Compound 15, Tubocapsanolide G] | >20 µg/mL | >20 µg/mL | >20 µg/mL | 17.55 µg/mL (≈ 34.9 µM) | >20 µg/mL |
| C[C@@]12CC([C@@]3(O)[C@H](O)C[C@H]4[C@@H]5C[C@H](Cl)[C@]6(O)[C@@H](O)C=CC(=O)[C@]6(C)[C@H]5CC[C@@]43C)[C@@H](C1)OC(=O)[C@]2(C)O (some centres unmarked) [Compound 22, Anomanolide D] | 19.03 µg/mL (≈ 35.3 µM) | >20 µg/mL | >20 µg/mL | >20 µg/mL | >20 µg/mL |
| COC1CC(=O)[C@]2(C)[C@H]3CC[C@]4(C)[C@@H]([C@@](C)(O)[C@H]5CC(C)=C(C)C(=O)O5)CC[C@H]4[C@@H]3C[C@H]3O[C@]32[C@H]1O (some centres unmarked) [Compound 16, iso-Tubocapsanolide G] | 7.63 µg/mL (≈ 15.2 µM) | 4.73 µg/mL (≈ 9.41 µM) | 8.18 µg/mL (≈ 16.3 µM) | 5.99 µg/mL (≈ 11.9 µM) | >20 µg/mL |
